Reference: patent US11608323B2 (SYNGENTA LIMITED, priority 2013, dated 2023)

Columns and labels:
Format in all cases: in vivo
ECHCG [1] = assay: Pre-emergence herbicidal activity, glasshouse pot test; conditions: rate 1000 g/Ha, evaluated after 13 days, scale 0-5
Summary of the method: (§1)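 Damage rated 13 days post-treatment on a 0-5 scale, 5 meaning total plant damage. Pots were sprayed pre-emergence, one day after sowing, with an acetone/water-derived aqueous spray containing 0.5% Tween 20. Plants grew under 14 h light, 65% humidity, 24/16 °C, watered twice daily.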

ABUTH [2] = assay: as above; conditions: rate 1000 g/Ha, evaluated after 13 days, scale 0-5
Summary of the method: as §1

AMARE [3] = assay: as above; conditions: rate 1000 g/Ha, evaluated after 13 days, scale 0-5
Summary of the method: as §1

ZEAMX [4] = assay: as above; conditions: rate 1000 g/Ha, evaluated after 13 days, scale 0-5
Summary of the method: as §1

SETFA [5] = assay: as above; conditions: rate 1000 g/Ha, evaluated after 13 days, scale 0-5
Summary of the method: as §1

ALOMY [6] = assay: as above; conditions: rate 1000 g/Ha, evaluated after 13 days, scale 0-5
Summary of the method: as §1

ECHCG [7] = assay: Post-emergence herbicidal activity, glasshouse pot test; conditions: Echinochloa crus-galli; application post-emergence; rate 1000 g/Ha; evaluated after 13 days
Summary of the method: (§2)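 Damage rating 0 (none) to 5 (total), assessed 13 days after spraying. Plants received the compound in acetone/water 50:50 with 0.5% Tween 20 at 8 days post-sowing, then were kept at 24/16 °C, 14 h photoperiod, 65% RH.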

ABUTH [8] = assay: as above; conditions: Abutilon theophrasti; application post-emergence; rate 1000 g/Ha; evaluated after 13 days
Summary of the method: as §2

AMARE [9] = assay: as above; conditions: Amaranthus retroflexus; application post-emergence; rate 1000 g/Ha; evaluated after 13 days
Summary of the method: as §2

ZEAMX [10] = assay: as above; conditions: Zea mays; application post-emergence; rate 1000 g/Ha; evaluated after 13 days
Summary of the method: as §2

SETFA [11] = assay: as above; conditions: Setaria faberi; application post-emergence; rate 1000 g/Ha; evaluated after 13 days
Summary of the method: as §2

ALOMY [12] = assay: as above; conditions: Alopecurus myosuroides; application post-emergence; rate 1000 g/Ha; evaluated after 13 days
Summary of the method: as §2

SMILES | ECHCG damage score, application pre-emergence (ECHCG [1]) | ABUTH damage score, application pre-emergence (ABUTH [2]) | AMARE damage score, application pre-emergence (AMARE [3]) | ZEAMX damage score, application pre-emergence (ZEAMX [4]) | SETFA damage score, application pre-emergence (SETFA [5]) | ALOMY damage score, application pre-emergence (ALOMY [6]) | Post-emergence herbicidal activity ECHCG (damage score 0-5) (ECHCG [7]) | Post-emergence herbicidal activity ABUTH (damage score 0-5) (ABUTH [8]) | Post-emergence herbicidal activity AMARE (damage score 0-5) (AMARE [9]) | Post-emergence herbicidal activity ZEAMX (damage score 0-5) (ZEAMX [10]) | Post-emergence herbicidal activity SETFA (damage score 0-5) (SETFA [11]) | Post-emergence herbicidal activity ALOMY (damage score 0-5) (ALOMY [12])
CON1C(=O)N(c2cc(C(F)(F)F)ccn2)C(O)[C@@H]1C (mixture of isomers) [Compound A3, (4R,5S)-4-hydroxy-1-methoxy-5-methyl-3-[4-(trifluoromethyl)-2-pyridyl]imidazolidin-2-one and (4S,5S)-4-hydroxy-1-methoxy-5-methyl-3-[4-(trifluoromethyl)-2-pyridyl]imidazolidin-2-one] | 5 | 4 | 5 | 3 | 5 | 3 | 5 | 5 | 5 | 5 | 5 | 5
CON1C(=O)N(c2cc(C(F)(F)F)ccn2)C(O)[C@H]1C (mixture of isomers) [Compound A4, (4R,5R)-4-hydroxy-1-methoxy-5-methyl-3-[4-(trifluoromethyl)-2-pyridyl]imidazolidin-2-one and (4S,5R)-4-hydroxy-1-methoxy-5-methyl-3-[4-(trifluoromethyl)-2-pyridyl]imidazolidin-2-one] | 5 | 5 | 5 | 3 | 5 | 4 | 5 | 5 | 5 | 5 | 5 | 5
C[C@H]1C(O)N(c2cc(C(F)(F)F)ccn2)C(=O)N1C (mixture of isomers) [Compound A37, (4R,5S)-4-hydroxy-1,5-dimethyl-3-[4-(trifluoromethyl)-2-pyridyl]imidazolidin-2-one and (4S,5S)-4-hydroxy-1,5-dimethyl-3-[4-(trifluoromethyl)-2-pyridyl]imidazolidin-2-one] | 5 | 5 | 5 | 3 | 4 | 4 | 5 | 5 | 5 | 4 | 5 | 5
CCOC1C(O)N(c2cc(C(F)(F)F)ccn2)C(=O)N1C (racemic) [Compound A6, 5-ethoxy-4-hydroxy-1-methyl-3-[4-(trifluoromethyl)-2-pyridyl]imidazolidin-2-one] | 4 | 5 | 5 | 2 | 5 | 4 | 5 | 5 | 5 | 2 | 5 | 5
CCOC1C(O)N(c2cc(C(F)(F)F)c(-c3cncnc3)cn2)C(=O)N1C (stereo not drawn) [Compound A14] | 5 | – | 5 | – | 5 | 4 | 5 | 5 | 5 | 3 | 5 | 4
COC1C(O)N(c2cc(C(F)(F)F)c(-c3cncnc3)cn2)C(=O)N1C (stereo not drawn) [Compound A15] | 3 | – | 5 | – | 4 | 3 | 4 | 5 | 5 | 0 | 4 | 4
CCOC1C(O)N(c2cc(C(F)(F)F)c(I)cn2)C(=O)N1C (stereo not drawn) [Compound A16] | 5 | – | 5 | – | 4 | 4 | 5 | 5 | 5 | 2 | 5 | 5
CN1C(=O)N(c2cc(C(F)(F)F)c(I)cn2)C(O)C1O (stereo not drawn) [Compound A17] | 4 | – | 5 | – | 3 | 3 | 5 | 5 | 5 | 4 | 5 | 5
COC1C(O)N(c2cc(C(F)(F)F)c(I)cn2)C(=O)N1C (stereo not drawn) [Compound A18] | 5 | – | 5 | – | 4 | 4 | 5 | 5 | 5 | 3 | 5 | 5
COCCOCc1cnc(N2C(=O)N(C)C(C)C2O)cc1C(F)(F)F (stereo not drawn) [Compound A108] | 5 | 5 | 5 | 2 | 4 | – | 5 | 5 | 5 | 5 | 5 | –
